Measurements taken from publication PMC10698032, “A monoacylglycerol lipase inhibitor showing therapeutic efficacy in mice without central side effects or dependence” (Nature Communications, 2023).

Experiments:
[1] = target: T1, MAGL (monoacylglycerol lipase) (Mus musculus, UniProt O35678); experiment: biochemical; parameters: gene Mgll; endogenous, mouse brain membrane proteome; gel-based competitive ABPP with FP-TAMRA on mouse brain membrane proteome, MAGL labelling, n=1; settings: read-out: Inhibition ABPP assay (%)
T1 sequence (O35678 1-303): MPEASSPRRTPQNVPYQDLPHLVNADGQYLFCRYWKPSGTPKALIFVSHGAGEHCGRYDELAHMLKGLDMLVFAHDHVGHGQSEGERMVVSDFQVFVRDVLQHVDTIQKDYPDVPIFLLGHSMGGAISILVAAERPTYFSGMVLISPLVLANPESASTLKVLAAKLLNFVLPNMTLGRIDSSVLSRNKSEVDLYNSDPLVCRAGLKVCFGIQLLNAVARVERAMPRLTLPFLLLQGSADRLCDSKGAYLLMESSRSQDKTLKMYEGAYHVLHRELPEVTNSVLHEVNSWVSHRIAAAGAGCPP
Source text: Subsequently, the qualified hits underwent testing in an orthogonal gel-based competitive activity-based protein profiling (ABPP) assay, a powerful technique for obtaining an initial selectivity profile of these compounds. The assay employed fluorophosphonate-tetramethylrhodamine (FP-TAMRA), a broad-spectrum activity-based probe designed to target a wide range of serine hydrolases, including endocannabinoid hydrolases like MAGL, fatty acid amide hydrolase (FAAH), and alpha/beta hydrolase domain-containing protein 6 (ABHD6)[30],[31]. […] This observation could indicate potential species differences or a short residence time for the target. A correlation between inhibitor potency in the primary substrate-based assay and the orthogonal ABPP assay was, however, noted for the majority of compounds (Fig. 1f). […] This characteristic positions it as a promising candidate for further optimization. 71 Figure S1 72 73 74 75 76 Supplementary Figure 1 – Orthogonal competitive ABPP assay for hit validation and selectivity assessment. 77 ABPP was performed on mouse brain membrane proteome using FP-TAMRA. Proteome was pre-incubated with 78 inhibitor (10 µM, 30 min), followed by incubation with FP-TAMRA (100 nM, 10 min). JZL184 was included as 79 positive control on all gels. […] Physicochemical properties (cLogP, tPSA, HBD, HBA) were calculated using ChemDraw Professional 31 16.0.

[2] = target: T2, MAGL (monoacylglycerol lipase) (Homo sapiens, UniProt Q99685); experiment: fluorescent 2-AG hydrolysis assay on human MAGL-overexpressing HEK293T membranes; format: biochemical
T2 construct: gene MGLL; full-length, C-terminal FLAG-tag, HEK293T membrane fractions

[3] = target: T1, MAGL (monoacylglycerol lipase); experiment: gel-based competitive ABPP with FP-TAMRA at […]; format: cell-based; parameters: gene Mgll; endogenous, mouse brain membrane proteome; settings: read-out: % inhibition at 10 μM

T2 sequence (Q99685 whole entry): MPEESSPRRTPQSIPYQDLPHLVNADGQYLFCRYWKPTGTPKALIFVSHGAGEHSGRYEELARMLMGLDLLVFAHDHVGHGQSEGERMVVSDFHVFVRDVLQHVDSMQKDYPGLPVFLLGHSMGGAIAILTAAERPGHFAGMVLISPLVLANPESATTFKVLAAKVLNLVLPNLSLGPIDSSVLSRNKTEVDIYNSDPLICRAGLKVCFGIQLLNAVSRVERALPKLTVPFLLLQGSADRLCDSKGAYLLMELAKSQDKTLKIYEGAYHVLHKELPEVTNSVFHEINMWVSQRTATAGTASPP

`CCOC(=O)C[S+]([O-])c1ccc(C(=O)N2CCN(c3cccc(C)c3)C(C)C2)cc1[N+](=O)[O-]` (stereo not drawn) [compound 1, ethyl 2-((4-(3-methyl-4-(m-tolyl)piperazine-1-carbonyl)-2-nitrophenyl)sulfinyl)acetate] showed an inhibition at 10 µM [1] of 86%, an IC50 [2] of 398 nM and an inhibition at 10 µM [3] greater than 25%.
